Source: patent US6657106B2, “Removal of metals from contaminated substrates by plants” (ISIS Innovation Limited, priority 1995, dated 2003)
“Also recorded” adds a separate entry of the source.

Legend:
[1] = test system: A. montanum; assay: Effect of foliar spraying with histidine on nickel tolerance; assay type: in vivo, Alyssum montanum; conditions: 20 mM histidine daily foliar spray with 0.01% Tween 20; 0.03 mM NiSO4 in root medium, 23 d; compared with 20 mM glutamine
Method: 6. […]. Thus, chelation of nickel by histidine is important both in the detoxification of the metal ion within the plant and in facilitating the transport of the metal from root to shoot, a characteristic of metal-hyperaccumulator plants generally (Baker, A. J. M. and Brooks, R. R. (1989) loc. cit.).
METHODS. Plants were germinated for 7 d on floating nets in 1 mM Ca(NO3)2 solution, subsequently transferred to 1.2-1 culture vessels (10 plants per vessel), and supplied with modified 0.1-strength Hoagland solution containing 0.1 mM KH2PO4, 0.5 mM KNO3, 0.4 mM Ca(NO3)2, 0.2 mM MgSO4, 0.01 mM FeNaEDTA, 0.01 mM H3BO3, 2 μM MnSO4, 0.2 μM ZnSO4, 0.2 μM CuSO4, 0.1 μM Na2MoO4 and 0.02 mM NaCl, supplemented with 0, 0.01, 0.03, 0.1, 0.3, 1, or 3 mM NiSO4. Plants were grown in a glasshouse at night temperatures between 14° C. and 18° C. and day temperatures between 22° C. and 34° C. with supplementary lighting provided by sodium-vapour lamps to give a 16-h photoperiod. Culture solutions were continuously aerated and exchanged every 7 d; solution pH remained in the range 5.6 to 6.0. Plants were harvested after 18 d, rinsed with distilled water, dried at 80° C. for 48 h and weighed. […].
FIG. 4. […] Values of biomass production and root elongation are for nickel-treated plants expressed as percentages of the respective controls grown in the absence of nickel. […]

[2] = test system: A. montanum; assay: Effect of histidine in the root medium on xylem-sap exudation and nickel flux of excised roots; assay type: in vivo, Alyssum montanum; conditions: 0.3 mM NiSO4 with or without 0.3 mM histidine in root medium, exudate collected over 12 h
Text: 6. […] That is, the application of relatively high concentrations of histidine exogenously is able to increase markedly both the nickel tolerance of an otherwise non-tolerant species of Alyssum (A. montanum) and to cause these plants to translocate nickel out of the root system at much higher rates. Thus, chelation of nickel by histidine is important both in the detoxification of the metal ion within the plant and in facilitating the transport of the metal from root to shoot, a characteristic of metal-hyperaccumulator plants generally (Baker, A. J. M. and Brooks, R. R. (1989) loc. cit.).
FIG. 4. Effect of exogenously applied histidine on nickel tolerance and xylem nickel translocation. a, Effect of foliar spraying with histidine (compared with glutamine) on nickel tolerance of A. montanum, assayed as the effect on whole-plant dry biomass production and root elongation. After germination for 7 d, plants were grown in modified Hoagland solution (FIG. 1) containing either 0 or 0.03 mM NiSO4 for 23 d and were sprayed daily with a solution of either 20 mM glutamine (Ni) or 20 mM histidine (His+Ni), both containing 0.01% (v/v) of the non-ionic detergent Tween 20. Values of biomass production and root elongation are for nickel-treated plants expressed as percentages of the respective controls grown in the absence of nickel. Each bar represents the mean of 9 plants+1 SE. […]

[3] = test system: A. lesbiacum; assay: as above; assay type: in vivo, Alyssum lesbiacum; conditions: 0.3 mM NiSO4 with or without 0.3 mM histidine in root medium, 12 h
Text: FIG. 4. Effect of exogenously applied histidine on nickel tolerance and xylem nickel translocation. a, Effect of foliar spraying with histidine (compared with glutamine) on nickel tolerance of A. montanum, assayed as the effect on whole-plant dry biomass production and root elongation. […]. Values of biomass production and root elongation are for nickel-treated plants expressed as percentages of the respective controls grown in the absence of nickel. […]. Roots of 4-week-old plants were excised and exposed to a root medium of modified Hoagland solution supplemented with either 0.3 mM MgSO4 (controls) or 0.3 mM NiSO4, with or without 0.3 mM added histidine.

[4] = test system: A. montanum; conditions: histidine supplied to the root medium of excised roots; earlier symposium report; cited from earlier work
[5] = test system: A. montanum; conditions: histidine supplied to the xylem of excised shoots; cited from earlier work

SMILES: N[C@@H](Cc1c[nH]cn1)C(=O)O [histidine]
- root elongation (inhibitory effect of nickel) [1]: halving of the inhibitory effect; also recorded: significantly greater
- whole-plant dry biomass production [1]: more than twofold increase; also recorded: significantly greater
- flux of nickel through the xylem [2]: greatly increased; also recorded: significantly greater
- rate of xylem-sap exudation [2]: moderated the adverse effect of nickel; also recorded: significantly greater
- nickel flux [3]: no significant differences
- xylem exudation rate [3]: no significant differences
- toxicity of nickel (exudation of sap, flux of nickel through the root system) [4]: apparently reduced the toxicity of nickel
- toxicity of nickel [5]: apparently reduced the toxicity of nickel
